In ChEMBL document CHEMBL5696442, “Discovery of type II inhibitors of TGFβ-activated kinase 1 (TAK1) and mitogen-activated protein kinase kinase kinase kinase 2 (MAP4K2)” (J Med Chem, 2015):

Tests used:
[1] = target: T1, Eukaryotic translation initiation factor 2-alpha kinase 3 (Homo sapiens) (UniProt Q9NZJ5); assay: Inhibition of PEK Lys2 labeling site in human Huh-7 cell lysate at 1 uM by KiNativ Profiling analysis relative to control; type: subcellular
T1 sequence (whole entry): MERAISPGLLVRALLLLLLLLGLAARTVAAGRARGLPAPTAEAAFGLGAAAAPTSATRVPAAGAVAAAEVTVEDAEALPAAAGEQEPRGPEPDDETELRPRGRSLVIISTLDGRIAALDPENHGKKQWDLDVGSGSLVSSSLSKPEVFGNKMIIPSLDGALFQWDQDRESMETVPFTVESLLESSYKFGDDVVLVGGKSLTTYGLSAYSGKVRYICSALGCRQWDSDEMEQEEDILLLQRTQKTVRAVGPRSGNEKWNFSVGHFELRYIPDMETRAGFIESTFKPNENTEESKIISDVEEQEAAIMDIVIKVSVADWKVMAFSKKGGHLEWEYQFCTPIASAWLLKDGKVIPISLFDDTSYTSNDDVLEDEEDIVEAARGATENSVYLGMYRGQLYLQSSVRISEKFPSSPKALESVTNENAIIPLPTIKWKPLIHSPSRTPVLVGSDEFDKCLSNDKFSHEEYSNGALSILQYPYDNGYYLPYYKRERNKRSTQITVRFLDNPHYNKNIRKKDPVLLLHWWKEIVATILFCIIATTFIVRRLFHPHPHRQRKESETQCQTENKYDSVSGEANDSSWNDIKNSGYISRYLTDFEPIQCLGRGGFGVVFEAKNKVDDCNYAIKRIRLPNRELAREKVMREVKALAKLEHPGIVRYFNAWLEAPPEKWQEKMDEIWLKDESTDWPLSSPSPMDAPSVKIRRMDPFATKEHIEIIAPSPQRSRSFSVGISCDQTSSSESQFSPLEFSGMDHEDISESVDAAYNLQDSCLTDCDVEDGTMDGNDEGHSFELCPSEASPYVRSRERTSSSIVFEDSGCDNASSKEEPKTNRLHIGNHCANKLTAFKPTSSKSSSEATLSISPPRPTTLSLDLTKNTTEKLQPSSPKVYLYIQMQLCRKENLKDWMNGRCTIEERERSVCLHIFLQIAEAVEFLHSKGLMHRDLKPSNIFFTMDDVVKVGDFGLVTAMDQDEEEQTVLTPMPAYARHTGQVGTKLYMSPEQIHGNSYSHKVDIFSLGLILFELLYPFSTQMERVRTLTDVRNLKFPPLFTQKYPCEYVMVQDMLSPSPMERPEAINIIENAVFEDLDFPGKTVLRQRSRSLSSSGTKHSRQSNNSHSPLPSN

[2] = target: Leukocyte tyrosine kinase receptor (Homo sapiens) (UniProt P29376); assay: Inhibition of LTK (unknown origin) at 10 uM by Ambit Kinomescan binding assay relative to control
[3] = target: Platelet-derived growth factor receptor beta (Homo sapiens) (UniProt P09619); assay: Inhibition of PDGFRB (unknown origin) at 10 uM by Ambit Kinomescan binding assay relative to control
[4] = tested on: Tyrosine-protein kinase ABL1 (Homo sapiens), P00519 [F317L]; assay: Inhibition of ABL1 F317L mutant (unknown origin) at 10 uM by Ambit Kinomescan binding assay relative to control
[5] = target: Maternal embryonic leucine zipper kinase (Homo sapiens) (UniProt Q14680); assay: Inhibition of MELK Lys2 labeling site in human A-375 cells at 0.05 uM by KiNativ Profiling analysis relative to control; type: cell-based
[6] = target: T2, Mitogen-activated protein kinase kinase kinase 15 (Homo sapiens) (UniProt Q6ZN16); assay: Inhibition of MAP3K15 Lys1 labeling site harbouring IAIKEIPERDSR in human A-375 cells at 5 uM by KiNativ Profiling analysis relative to control; type: cell-based
T2 sequence (whole entry): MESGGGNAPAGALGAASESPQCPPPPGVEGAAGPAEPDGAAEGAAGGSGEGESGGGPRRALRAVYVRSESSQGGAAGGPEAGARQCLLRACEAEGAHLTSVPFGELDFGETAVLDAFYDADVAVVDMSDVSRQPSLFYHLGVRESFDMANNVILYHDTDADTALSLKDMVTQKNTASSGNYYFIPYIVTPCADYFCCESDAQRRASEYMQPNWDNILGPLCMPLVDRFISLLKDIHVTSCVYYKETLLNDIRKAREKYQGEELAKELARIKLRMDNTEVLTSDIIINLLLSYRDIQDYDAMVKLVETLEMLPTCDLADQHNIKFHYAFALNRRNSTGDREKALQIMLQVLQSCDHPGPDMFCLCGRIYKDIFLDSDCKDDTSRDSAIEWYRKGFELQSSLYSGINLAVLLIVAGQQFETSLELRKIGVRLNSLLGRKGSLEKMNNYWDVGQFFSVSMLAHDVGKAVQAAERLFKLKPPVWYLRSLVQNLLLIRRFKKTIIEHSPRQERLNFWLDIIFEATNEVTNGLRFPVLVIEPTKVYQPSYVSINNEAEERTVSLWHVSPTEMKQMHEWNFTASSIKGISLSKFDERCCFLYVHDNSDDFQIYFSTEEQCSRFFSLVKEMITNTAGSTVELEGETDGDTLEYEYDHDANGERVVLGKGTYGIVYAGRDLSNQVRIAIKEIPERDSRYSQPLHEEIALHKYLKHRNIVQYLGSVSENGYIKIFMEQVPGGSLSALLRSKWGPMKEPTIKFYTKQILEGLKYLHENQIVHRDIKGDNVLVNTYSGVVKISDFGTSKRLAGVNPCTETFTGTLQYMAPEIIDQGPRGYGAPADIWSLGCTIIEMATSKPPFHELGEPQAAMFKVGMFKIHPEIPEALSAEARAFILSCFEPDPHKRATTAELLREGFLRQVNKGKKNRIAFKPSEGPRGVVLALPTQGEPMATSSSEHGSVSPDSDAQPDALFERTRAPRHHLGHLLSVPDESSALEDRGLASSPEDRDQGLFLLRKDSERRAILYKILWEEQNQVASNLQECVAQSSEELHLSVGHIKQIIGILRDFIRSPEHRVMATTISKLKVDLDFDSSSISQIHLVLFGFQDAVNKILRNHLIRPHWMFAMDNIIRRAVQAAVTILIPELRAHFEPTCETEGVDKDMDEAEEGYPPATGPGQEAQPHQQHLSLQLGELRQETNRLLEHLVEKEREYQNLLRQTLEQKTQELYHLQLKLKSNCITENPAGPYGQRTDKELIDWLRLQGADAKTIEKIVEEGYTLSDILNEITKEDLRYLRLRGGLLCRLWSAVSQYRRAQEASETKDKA

[7] = target: Cyclin-dependent kinase 17 (Homo sapiens) (UniProt Q00537); assay: Inhibition of PCTAIRE2 Lys1 labeling site harbouring SKLTENLVALKEIR in human A-375 cells at 0.05 uM by KiNativ Profiling analysis relative to control; type: cell-based
[8] = target: Serine/threonine-protein kinase MRCK alpha (Homo sapiens) (UniProt Q5VT25); assay: Inhibition of MRCKA (unknown origin) at 1 uM by Ambit Kinomescan binding assay relative to control

Chain of Maternal embryonic leucine zipper kinase (Homo sapiens) (Q14680 whole entry, looked up): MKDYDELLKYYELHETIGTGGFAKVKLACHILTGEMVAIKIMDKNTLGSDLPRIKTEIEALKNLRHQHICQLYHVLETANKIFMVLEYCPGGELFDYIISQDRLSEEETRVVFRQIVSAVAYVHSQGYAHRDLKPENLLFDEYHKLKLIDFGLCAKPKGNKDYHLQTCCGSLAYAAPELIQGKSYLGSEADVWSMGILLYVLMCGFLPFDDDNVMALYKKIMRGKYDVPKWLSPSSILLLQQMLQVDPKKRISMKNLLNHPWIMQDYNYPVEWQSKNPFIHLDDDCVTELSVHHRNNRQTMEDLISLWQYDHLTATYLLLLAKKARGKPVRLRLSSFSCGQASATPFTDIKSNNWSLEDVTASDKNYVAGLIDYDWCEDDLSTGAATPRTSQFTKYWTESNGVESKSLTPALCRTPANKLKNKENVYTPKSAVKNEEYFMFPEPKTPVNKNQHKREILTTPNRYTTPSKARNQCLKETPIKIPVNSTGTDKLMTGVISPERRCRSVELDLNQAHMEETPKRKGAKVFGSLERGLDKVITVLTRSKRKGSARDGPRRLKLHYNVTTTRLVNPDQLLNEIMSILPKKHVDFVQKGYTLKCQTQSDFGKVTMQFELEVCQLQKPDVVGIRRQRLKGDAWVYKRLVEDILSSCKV
Chain of Platelet-derived growth factor receptor beta (Homo sapiens) (P09619 whole entry): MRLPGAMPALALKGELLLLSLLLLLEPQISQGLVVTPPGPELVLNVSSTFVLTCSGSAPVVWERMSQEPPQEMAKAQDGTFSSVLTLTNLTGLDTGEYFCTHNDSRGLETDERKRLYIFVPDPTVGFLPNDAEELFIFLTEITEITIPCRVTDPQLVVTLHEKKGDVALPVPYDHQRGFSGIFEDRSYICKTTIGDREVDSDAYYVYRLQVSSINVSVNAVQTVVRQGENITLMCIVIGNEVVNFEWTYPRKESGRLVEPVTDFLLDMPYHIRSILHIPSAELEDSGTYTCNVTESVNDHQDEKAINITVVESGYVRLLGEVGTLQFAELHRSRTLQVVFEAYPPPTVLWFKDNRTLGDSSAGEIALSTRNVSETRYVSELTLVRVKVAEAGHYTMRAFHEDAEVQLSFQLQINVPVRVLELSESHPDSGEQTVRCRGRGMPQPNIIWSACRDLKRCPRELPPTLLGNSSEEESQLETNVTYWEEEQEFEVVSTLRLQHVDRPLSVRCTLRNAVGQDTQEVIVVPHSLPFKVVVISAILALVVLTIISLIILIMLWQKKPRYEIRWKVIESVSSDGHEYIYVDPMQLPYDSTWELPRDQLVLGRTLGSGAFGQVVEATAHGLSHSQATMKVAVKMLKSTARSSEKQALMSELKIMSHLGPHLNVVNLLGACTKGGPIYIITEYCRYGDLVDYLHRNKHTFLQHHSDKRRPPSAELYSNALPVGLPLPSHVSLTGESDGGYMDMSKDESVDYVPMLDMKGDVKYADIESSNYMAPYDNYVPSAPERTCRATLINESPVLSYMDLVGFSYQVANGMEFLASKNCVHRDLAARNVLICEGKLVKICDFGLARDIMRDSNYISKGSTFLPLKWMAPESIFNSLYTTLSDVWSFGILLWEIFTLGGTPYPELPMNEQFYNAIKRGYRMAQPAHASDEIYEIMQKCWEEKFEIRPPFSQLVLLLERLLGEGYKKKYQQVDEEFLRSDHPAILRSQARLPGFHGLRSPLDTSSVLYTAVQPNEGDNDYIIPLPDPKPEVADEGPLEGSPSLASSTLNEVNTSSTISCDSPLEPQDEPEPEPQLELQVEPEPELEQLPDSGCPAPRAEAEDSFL
Chain of Tyrosine-protein kinase ABL1 (Homo sapiens), P00519 [F317L] (P00519 whole entry F317L): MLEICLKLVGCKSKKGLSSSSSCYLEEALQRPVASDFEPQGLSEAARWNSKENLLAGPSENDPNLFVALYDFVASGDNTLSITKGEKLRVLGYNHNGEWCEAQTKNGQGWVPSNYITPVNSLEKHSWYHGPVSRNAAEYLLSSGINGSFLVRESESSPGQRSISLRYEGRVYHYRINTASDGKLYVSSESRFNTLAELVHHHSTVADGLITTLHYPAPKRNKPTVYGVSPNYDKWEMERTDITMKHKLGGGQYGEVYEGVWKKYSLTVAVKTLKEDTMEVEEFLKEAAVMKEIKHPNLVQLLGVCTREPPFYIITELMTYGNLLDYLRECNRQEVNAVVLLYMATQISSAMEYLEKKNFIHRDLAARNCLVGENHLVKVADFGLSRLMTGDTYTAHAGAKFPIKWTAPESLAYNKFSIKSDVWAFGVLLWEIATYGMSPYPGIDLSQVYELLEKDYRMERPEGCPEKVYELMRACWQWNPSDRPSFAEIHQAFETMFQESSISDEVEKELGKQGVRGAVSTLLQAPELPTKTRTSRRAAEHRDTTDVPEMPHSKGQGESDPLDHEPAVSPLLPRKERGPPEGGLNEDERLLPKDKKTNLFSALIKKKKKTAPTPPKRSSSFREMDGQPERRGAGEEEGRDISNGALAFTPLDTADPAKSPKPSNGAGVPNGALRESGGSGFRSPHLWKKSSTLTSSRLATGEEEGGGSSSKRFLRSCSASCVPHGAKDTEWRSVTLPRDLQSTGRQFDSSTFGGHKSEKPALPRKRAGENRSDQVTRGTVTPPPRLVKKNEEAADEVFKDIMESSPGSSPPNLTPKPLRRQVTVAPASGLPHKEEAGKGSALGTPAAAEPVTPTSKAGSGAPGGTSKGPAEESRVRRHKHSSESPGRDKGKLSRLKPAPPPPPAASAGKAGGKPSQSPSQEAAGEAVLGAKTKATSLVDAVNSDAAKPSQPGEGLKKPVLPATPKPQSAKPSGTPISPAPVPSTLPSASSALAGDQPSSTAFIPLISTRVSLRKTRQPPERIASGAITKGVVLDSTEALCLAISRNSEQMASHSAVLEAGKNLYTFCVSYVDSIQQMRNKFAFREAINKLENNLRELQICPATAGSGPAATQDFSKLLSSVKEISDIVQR
Chain of Cyclin-dependent kinase 17 (Homo sapiens) (Q00537 whole entry, looked up): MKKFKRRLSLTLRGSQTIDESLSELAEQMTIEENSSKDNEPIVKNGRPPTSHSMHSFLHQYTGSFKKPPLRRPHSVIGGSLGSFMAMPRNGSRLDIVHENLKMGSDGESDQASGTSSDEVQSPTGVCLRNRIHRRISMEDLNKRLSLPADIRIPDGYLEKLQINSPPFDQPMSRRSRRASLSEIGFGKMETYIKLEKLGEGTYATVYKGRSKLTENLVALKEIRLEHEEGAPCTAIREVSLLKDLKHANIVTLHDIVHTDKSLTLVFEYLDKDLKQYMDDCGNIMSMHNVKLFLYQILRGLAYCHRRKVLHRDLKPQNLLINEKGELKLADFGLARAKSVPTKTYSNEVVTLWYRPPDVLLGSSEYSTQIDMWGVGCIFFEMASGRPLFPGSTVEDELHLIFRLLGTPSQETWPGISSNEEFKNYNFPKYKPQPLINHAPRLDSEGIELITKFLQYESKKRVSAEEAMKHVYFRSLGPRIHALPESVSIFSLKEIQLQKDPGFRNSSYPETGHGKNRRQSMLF
Chain of Leukocyte tyrosine kinase receptor (Homo sapiens) (P29376 whole entry): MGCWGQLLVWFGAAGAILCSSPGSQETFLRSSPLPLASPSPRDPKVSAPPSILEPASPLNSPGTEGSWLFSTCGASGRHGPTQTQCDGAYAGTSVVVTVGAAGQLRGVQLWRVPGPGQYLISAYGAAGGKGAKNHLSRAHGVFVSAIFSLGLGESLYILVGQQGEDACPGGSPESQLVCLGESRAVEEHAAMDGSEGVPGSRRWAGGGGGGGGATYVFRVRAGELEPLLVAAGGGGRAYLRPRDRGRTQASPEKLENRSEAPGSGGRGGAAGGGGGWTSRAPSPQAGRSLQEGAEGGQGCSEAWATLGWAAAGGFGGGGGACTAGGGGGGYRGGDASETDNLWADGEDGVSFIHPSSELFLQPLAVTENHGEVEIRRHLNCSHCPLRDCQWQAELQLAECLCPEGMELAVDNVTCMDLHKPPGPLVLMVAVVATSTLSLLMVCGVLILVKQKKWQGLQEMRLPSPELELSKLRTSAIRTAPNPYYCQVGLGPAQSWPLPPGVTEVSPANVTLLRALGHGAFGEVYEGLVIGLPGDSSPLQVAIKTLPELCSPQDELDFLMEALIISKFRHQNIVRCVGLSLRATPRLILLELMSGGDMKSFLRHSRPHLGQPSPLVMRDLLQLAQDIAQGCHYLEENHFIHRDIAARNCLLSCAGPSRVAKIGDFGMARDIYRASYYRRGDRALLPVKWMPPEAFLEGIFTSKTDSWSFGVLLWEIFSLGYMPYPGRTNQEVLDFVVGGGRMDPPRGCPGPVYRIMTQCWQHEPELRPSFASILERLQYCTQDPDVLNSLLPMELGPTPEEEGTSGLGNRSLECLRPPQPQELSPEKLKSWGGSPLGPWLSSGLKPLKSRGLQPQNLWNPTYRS

`CNc1cc(Oc2cc(C(=O)Nc3cc(N4CCN(C)CC4)cc(C(F)(F)F)c3)ccc2C)ncn1` was tested, and the inhibition [1] was -6.7%.

With `CCN1CCN(Cc2ccc(NC(=O)c3ccc(C)c(Oc4ccnc5[nH]ccc45)c3)cc2C(F)(F)F)CC1` the inhibition [2] was 1.2%, the inhibition [3] was 0% and the inhibition [4] was 0.1%. The inhibition [5] was 4.1%, the inhibition [6] was -3.2% and the inhibition [7] was 2.5%.

Molecule `CCN1CCN(Cc2ccc(NC(=O)c3ccc(C)c(/C=C/c4cnc5[nH]ccc5c4OC)c3)cc2C(F)(F)F)CC1` has an inhibition [8] of 79%.
